Assay results published in patent publication US12233088B2 (Alexion Pharmaceuticals, Inc., priority 2017, dated 2025).
Read-outs that look alike come from different tables or passages of the source.

Tests used:
[1] = test system: patients with Wilson's disease
Procedure: This open-label, phase 2 study was performed at 11 hospitals in the USA and in Europe. […] Investigators, other hospital personnel, and patients were aware of the identity of the treatment. […] This study is registered with ClinicalTrials.gov, number NCT02273596.
The open-label, phase 2 study was performed at 11 hospitals. Eligible patients were aged 18 years or older, with a diagnosis of Wilson's disease established by a Leipzig score of 4 or more. […] Patients with decompensated hepatic cirrhosis, a MELD score greater than 11, or a modified Nazer score (revised King's score) greater than 6 were excluded.
Investigators, other hospital personnel, patients, and the study sponsor were aware of the identity of the treatment.
Up-titration was stepwise, with each increase restricted to double the previous dose, and not permitted if NCC was within or below the normal range.
Using values for plasma total copper and ceruloplasmin concentrations, NCC was calculated by subtracting the amount of copper bound to ceruloplasmin from total copper concentrations (determined with inductively coupled plasma mass spectrometry). […] The correction method used the average molar ratio of copper to molybdenum in the tripartite complex, which was determined using the relationship between NCC and plasma molybdenum concentrations and confirmed by two independent methods. The NCC correction method was validated using random selections of test and validation samples.
The primary endpoint was change in NCCcorrected from baseline to 24 weeks, which was measured as NCC concentrations corrected for copper contained in tetrathiomolybdate-copper-albumin complexes (NCCcorrected).
Secondary endpoints were safety and tolerability, change in and time to normalisation of NCCcorrected level clinical neurological disease, liver function, clinical symptoms, health-related quality of life (HRQoL), psychiatric status, and pharmacokinetics and exchangeable copper, speciation profiling, and urinary copper. Psychiatric status, pharmacokinetics data, and copper endpoints were also measured. Neurological disease was assessed as patient-reported disability, measured with UWDRS part II, and also as trained-rater-assessed neurological status, measured with UWDRS part III. Liver synthetic function was assessed by monitoring of international normalised ratio (INR) and albumin concentrations. Additionally, changes in liver function were assessed by modified Nazer score (based on bilirubin, INR, AST, albumin, and white blood cell count) and, in a post-hoc analysis, by the MELD score (based on bilirubin, creatinine, INR, and cause of liver disease). HRQoL was measured with the EuroQoL 5 Dimensions Visual Analogue Scale (EQ VAS).
Adverse event (AE) data was collected for onset, duration, seriousness, and severity, with relation to study medication determined by the investigator.
Since the aim of the study was to present primarily descriptive statistics, no formal power calculations were performed. Changes in copper concentrations and scores were summarised over time with descriptive statistics. Mixed-model repeated-measures analysis with a fixed-effect term were applied for clinic visit, and a spatial power covariance structure was applied to model the within-participant errors. A spatial power covariance structure was selected because it assumes that the within-participant correlation decays as the time distance increases between repeated measures. SAS (version 9.3) was utilised to provide change in least-squares mean over time, and the associated 95% CIs, SE, and two-sided p values.

[2] = test system: Wilson disease patients with and without cirrhosis
Procedure: Mortality in Wilson disease is usually secondary to decompensated hepatic cirrhosis and liver failure; therefore, liver function is an important factor in determining appropriate treatment regimens. The outcome of patients with and without cirrhosis using in the patient pool of Example 1, supplemented with week 48 data generated in the 3-year extension phase of the initial trial, was analyzed.
For the analyses described in this example, patients were characterized as having cirrhosis based on medical history (biopsy or imaging) or based on estimates of AST to Platelet Ratio Index (APRI) (AST refers to aspartate aminotransferase). Summary statistics were calculated for Baseline demographics, NCCcorr levels, ALT levels, MELD and modified Nazer scores, Albumin concentration, International normalized ratio (INR), Disability and neurological status using the unified Wilson's disease rating scale, and adverse events (AEs). […] Patient flow for the extension study is depicted in FIG. 12.

[3] = baseline to week 24, least-squares mean, mixed-model repeated measures
[4] = baseline to week 24, mixed-model repeated measures
[5] = mixed-model repeated measures using all visits up to week 24
[6] = core study, patients without cirrhosis
[7] = extension phase, with cirrhosis

C[N+](C)(C)CCO.C[N+](C)(C)CCO.[SH-].[SH-].[S]=[Mo]=[S] [WTX101, bis-choline tetrathiomolybdate]
Patients reporting at least one treatment-emergent adverse event, Number of Patients (%) ([1]; 24 weeks, N=28): 17 (61%) | adverse event ALT increased, Number of Patients (%) ([1]; 24 weeks, N=28): 8 (29%) | adverse event AST increased, Number of Patients (%) ([1]; 24 weeks, N=28): 7 (25%) | adverse event Blood alkaline phosphatase increased, Number of Patients (%) ([1]; 24 weeks, N=28): 3 (11%) | adverse event Dry Skin, Number of Patients (%) ([1]; 24 weeks, N=28): 2 (7%) | adverse event GGT increased, Number of Patients (%) ([1]; 24 weeks, N=28): 8 (29%) | adverse event Headache, Number of Patients (%) ([1]; 24 weeks, N=28): 2 (7%) | adverse event Hepatic enzyme increased, Number of Patients (%) ([1]; 24 weeks, N=28): 4 (14%) | adverse event Nausea, Number of Patients (%) ([1]; 24 weeks, N=28): 2 (7%) | adverse event Tremor, Number of Patients (%) ([1]; 24 weeks, N=28): 2 (7%) | Relationship to the study drug as deemed by the investigator: ALT increased ([1]; SAE, baseline to week 24): Possible | Relationship to the study drug as deemed by the investigator: Abnormal behavior ([1]; SAE, baseline to week 24): Unrelated | Relationship to the study drug as deemed by the investigator: Adjustment disorder ([1]; SAE, baseline to week 24): Unrelated | Relationship to the study drug as deemed by the investigator: Affective disorder ([1]; SAE, baseline to week 24): Unrelated | Relationship to the study drug as deemed by the investigator: Agranulocytosis ([1]; SAE, baseline to week 24): Probable | Relationship to the study drug as deemed by the investigator: Gait disturbance ([1]; SAE, baseline to week 24): Unlikely | Relationship to the study drug as deemed by the investigator: Hepatic enzyme increased (severe ALT/AST elevation) ([1]; SAE, baseline to week 24): Probable | Relationship to the study drug as deemed by the investigator: Mania ([1]; SAE, baseline to week 24): Unlikely | Relationship to the study drug as deemed by the investigator: Personality disorder ([1]; SAE, baseline to week 24): Unlikely | Relationship to the study drug as deemed by the investigator: Psychotic disorder ([1]; SAE, baseline to week 24): Unrelated | Relationship to the study drug as deemed by the investigator: Decline in neurological functioning ([1]; SAE, baseline to week 24, likely due to disease progression): Possible | week by which mean NCCcorrected was below the upper limit of normal ([1]; ULN 2.3 μmol/L): ≤ 12 week | time to normalisation of liver function tests ([1]; after dose adjustments or treatment interruption): 1-2 weeks | time of occurrence of liver enzyme increases ([1]; after initiation, at 30 mg/day or higher): 4-10 weeks | patients who achieved or maintained normalised NCCcorrected, n (%) ([1]; at 24 weeks, of 28 patients): 16 (57%) | patients with at least a 25% reduction from baseline NCCcorrected, n (%) ([1]; at 24 weeks, of 28 patients): 4 (14%) | patients meeting the criteria for treatment success ([1]; at 24 weeks, of 28 patients, normalised NCCcorrected (≤2.3 μmol/L) or ≥25% reduction): 71% | reduction of mean NCCcorrected ([1]; baseline to week 24): 72% | UWDRS part II score Change from baseline [1, 3]: −3.7 | UWDRS part III score Change from baseline [1, 3]: −8.7 | Albumin Change from baseline [1, 4]: 2.3 g/L | Bilirubin Change from baseline [1, 4]: 0.02 mg/dL | EQVAS Change from baseline [1, 4]: 9.2 | INR Change from baseline [1, 4]: −0.05 | Modified Nazer score Change from baseline [1, 4]: −0.4 | Platelets Change from baseline [1, 4]: 2.3 1 × 10^9/L | MELD score Change from baseline ([1]; baseline to week 24, post-hoc, mixed-model repeated measures): −0.5 | increase of median peak ALT from baseline ([1]; in the 11 patients with liver enzyme increases): 7.2 times | median peak ALT ([1]; in the 11 patients with liver enzyme increases, range 101-1341): 197 U/L | ALT Change from baseline [1, 5]: 48.4 U/L | AST Change from baseline [1, 5]: 3.8 U/L | GGT Change from baseline [1, 5]: 60.7 U/L | most pronounced ALT signal ([1]; one patient, 30 mg/day): 1341 U/L | second highest ALT signal ([1]; one patient, 120 mg/day): 615 U/L | patients with UWDRS part II score improved by at least one point, n (%) ([1]; week 24): 12 (57%) | patients with UWDRS part III score improved by 4 or more points, n (%) ([1]; week 24): 14 (67%) | Modified Nazer score Week 24 Mean (SD) ([1]; week 24, n=21, baseline 1.4 (1.0)): 1.1 (0.6) | EQVAS Week 24 Mean (SD) ([1]; week 24, n=23, baseline 65.9 (23.0)): 74.3 (16.9) | INR Week 24 Mean (SD) ([1]; week 24, observed cases, n=22, baseline 1.11 (0.16)): 1.06 (0.08) | Bilirubin Week 24 Mean (SD) ([1]; week 24, observed cases, n=23, baseline 0.51 (0.29)): 0.49 (0.27) mg/dL | NCCcorrected Week 24 Mean (SD) ([1]; week 24, observed cases, n=23, baseline 3.6 (2.1)): 0.9 (1.0) μmol/L | AST Week 24 Mean (SD) ([1]; week 24, observed cases, n=23, baseline 36.6 (27.6)): 28.2 (9.9) U/L | Albumin Week 24 Mean (SD) ([1]; week 24, observed cases, n=23, baseline 39.2 (5.4)): 40.9 (3.2) g/L | ALT Week 24 Mean (SD) ([1]; week 24, observed cases, n=23, baseline 42.6 (32.8)): 36.8 (18.7) U/L | GGT Week 24 Mean (SD) ([1]; week 24, observed cases, n=23, baseline 70.1 (64.0)): 97.5 (77.7) U/L | Platelets Week 24 Mean (SD) ([1]; week 24, observed cases, n=23, baseline 155.5 (72.5)): 147.9 (63.2) 1 × 10^9/L | MELD score Week 24 Mean (SD) ([1]; week 24, post-hoc, n=21, baseline 7.7 (1.9)): 7.2 (1.8) | patients with ALT elevations requiring dose adjustments ([2]; core study, patients with cirrhosis): five | patients with ALT elevations requiring dose adjustments [2, 6]: seven | patients with study withdrawal associated with ALT elevations [2, 6]: three | patients with adverse events (AEs) ([2]; core study, with cirrhosis): 10 | patients with increased ALT and GGT levels (each) ([2]; core study, with cirrhosis): three | patients with increased AST levels ([2]; core study, with cirrhosis): four | patients with adverse events (AEs) ([2]; core study, without cirrhosis): 12 | patients with increased ALT and GGT levels (each) ([2]; core study, without cirrhosis): five | patients with increased AST levels ([2]; core study, without cirrhosis): four | patients with tremor (AE) ([2]; core study, without cirrhosis): four | patients with SAEs possibly related to WTX101 ([2]; extension phase, cirrhosis group, neutropenia, hepatolenticular degeneration): two | patients who experienced AEs [2, 7]: nine | patients with urinary tract infection [2, 7]: four | patients who experienced AEs ([2]; extension phase, without cirrhosis): six | liver function ([2]; up to 48 weeks, patients with and without cirrhosis): stable | ALT elevations requiring dose adjustments ([2]; week 24 to week 48, regardless of cirrhosis status): no ALT elevations requiring dose adjustments occurred | patients with severe adverse events (SAEs) ([2]; weeks 0-48, with cirrhosis): four | patients with severe adverse events (SAEs) ([2]; weeks 0-48, without cirrhosis): six
